Test results as given in patent US6461997B1, “Triazole sulfones having herbicidal activity” (Monsanto Technology LLC, priority 1999, dated 2002).

Assays:
rice (ORYSA) = experiment: Selectivity test, pre-emergence, warm season crop; type: in vivo; conditions: Oryza sativa, pre-emergence application, read-out: Percent inhibition, crop ORYSA
Experimental: (§1) The pre-emergence tests were conducted by the following procedure. Topsoil was sieved to pass through a 1.27 cm screen. Fertilizer was added to the topsoil and the mixture was then sterilized by heating. The topsoil mixture was placed in a pot and compacted to a depth of 1.0 to 1.25 cm from the top of the pot. Seeds of each of several monocotyledonous and dicotyledonous annual plant species were placed on top of the soil. Additional soil was subsequently placed over the seeds to level-fill the pot. A known amount of each test compound dissolved or suspended in an appropriate organic solvent was diluted with a 50:50 mix of acetone and water and applied to the surface of the soil. After treatment the plants were placed in a greenhouse where they received 0.64 cm of overhead irrigation. All subsequent watering consisted of a light overhead mist and/or subirrigation as needed for germination and growth. Tables 5 and 6 below relate to warm season plant species which were placed after pre-emergence treatment in a greenhouse with a 30/21° C. day/night temperature regime. Tables 7 and 8 below relates to cool season plant species placed after pre-emergence treatment in a greenhouse or growth chamber with an 18/13° C. day/night temperature regime.
(§2) Approximately 14 days after planting and treating, the plants were observed and herbicidal efficacy recorded as percent inhibition by comparison with untreated plants.
(§3) Additional pre-emergence and PPI tests were conducted by the procedures described above, on warm and cool season weed species in the presence of crop species, to assess herbicidal selectivity. Crop species included in warm season tests were corn (Zea mays, ZEAMX), rice (Oryza sativa, ORYSA) and soybean (Glycine max, GLYMX). Crop species included in cool season tests were wheat (Triticum aestivum, TRZAW), barley (Hordeunm vulgare, HORVX) and oilseed rape (Brassica napus, BRSNS).
(§4) Tables 15 and 16 relate to pre-emergence and PPI tests respectively on warm season species. Table 17 relates to pre-emergence tests on cool season species.

soybean (GLYMX) = experiment: Selectivity test, pre-emergence, warm season crop; type: in vivo; conditions: Glycine max, pre-emergence application, read-out: Percent inhibition, crop GLYMX
Experimental: as §1, §2, §3, §4

KCHSC (kochia) = experiment: Post-emergence herbicidal activity, cool season; type: in vivo, Kochia scoparia; conditions: abraded plants sprayed; GR80 = lowest tested rate (300, 100, 30, 10 g/ha) with 80% or greater inhibition; approx. 14 days after treatment; 18/13° C.
Experimental: (§5) In another set of tests, the post-emergence activity of compounds of this invention was evaluated on the cool season species listed above. The following procedure was used.
(§6) A pre-prepared topsoil mixture (described above) was placed in a pot and compacted to a depth of 1.0 to 1.25 cm from the top of the pot. Seeds of each of several monocotyledonous and dicotyledonous annual plant species were placed on top of the soil. The seeds were covered with a mixture of 50% topsoil and 50% Rediearth™ in sufficient quantity to level-fill the pots. The pots were then placed on a greenhouse bench and subirrigated as needed.
(§7) When plants growing from the seeds had emerged and reached a suitable growth stage for post-emergence treatment, typically 9 to 14 days after planting, above-ground parts of the plants were subjected to a pre-treatment involving abrasion to create greater opportunity for foliar uptake of subsequently applied compounds. Abrasion was performed using garnet 200w particles applied with a Sears Craftsman hand-held sandblaster operated at approximately 850 kPa (50 psig) pressure. […]
(§8) After treatment the plants were placed in a greenhouse with an 18/13° C. day/night temperature regime and were subsequently watered as needed for growth. Approximately 14 days after treatment, the plants were observed and herbicidal efficacy recorded as percent inhibition by comparison with control plants. […]

[1] = test system: VERPE (creeping speedwell); experiment: Post-emergence herbicidal activity, cool season; type: in vivo, Veronica persicaria; conditions: abraded plants sprayed; GR80 = lowest tested rate (300, 100, 30, 10 g/ha) with 80% or greater inhibition; approx. 14 days after treatment; 18/13° C.
Experimental: as §5, §6, §7, §8

[2] = test system: AEGCY (jointed goatgrass); experiment: Pre-emergence herbicidal activity, cool season; type: in vivo, Aegilops cylindrica; conditions: GR80 = lowest tested rate (300, 100, 30, 10 g/ha) with 80% or greater inhibition; approx. 14 days after treating; 18/13° C.
Experimental: Tables 5 to 8 summarize results of tests conducted as described below to determine the pre-emergence herbicidal activity, in the form of a GR80 value, of illustrative compounds of this invention. […] Compounds of the invention were typically applied at rates of 300, 100, 30, and 10 g/ha. Where herbicidal activity was evident but 80% inhibition was not achieved at the highest rate tested, an asterisk (*) is shown in the following tables.
as §1, §2
The plant species usually regarded as weeds which were utilized in the tests are identified in the tables below according to the following legend, in which “d” indicates a dicotyledonous species and “m” a monocotyledonous species. All monocotyledonous species included in the tests herein are grasses.

SASKR (russian thistle) = experiment: Post-emergence herbicidal activity, cool season; type: in vivo, Salsola kali; conditions: abraded plants sprayed; GR80 = lowest tested rate (300, 100, 30, 10 g/ha) with 80% or greater inhibition; approx. 14 days after treatment; 18/13° C.
Experimental: as §5, §6, §7, §8

SMILES: CCN(CC)C(=O)n1cnc(S(=O)(=O)C(F)(F)Br)n1 [Example 1, 3-(bromodifluoromethylsulfonyl)-1-(N,N-diethylcarbamoyl)-1,2,4-triazole]
- inhibition at 10 g/ha (rice (ORYSA)): 0%
- inhibition at 30 g/ha (rice (ORYSA)): 0%
- inhibition at 100 g/ha (rice (ORYSA)): 0%
- inhibition at 900 g/ha (rice (ORYSA)): 10%
- inhibition at 10 g/ha (soybean (GLYMX)): 0%
- inhibition at 30 g/ha (soybean (GLYMX)): 0%
- inhibition at 100 g/ha (soybean (GLYMX)): 0%
- inhibition at 900 g/ha (soybean (GLYMX)): 0%
- Post-emergence activity (GR80) KCHSC (KCHSC (kochia)): 100 g/ha
- Post-emergence activity (GR80) VERPE [1]: 300 g/ha

SMILES: CCN(CC)C(=O)n1cnc(S(=O)(=O)C(F)(F)C(F)(F)Br)n1 [Example 4]
- Pre-emergence activity (GR80) AEGCY [2]: * (activity observed, at least at highest rate, but <80% inhibition)

SMILES: CCN(CC)C(=O)n1cnc(S(=O)(=O)C(F)F)n1 [Example 15, 1-(N,N-diethylcarbamoyl)-3-(difluoromethylsulfonyl)-1,2,4-triazole]
- Post-emergence activity (GR80) SASKR (SASKR (russian thistle)): 100 g/ha
- inhibition at 10 g/ha (rice (ORYSA)): 0%
- inhibition at 30 g/ha (rice (ORYSA)): 0%
- inhibition at 100 g/ha (rice (ORYSA)): 0%
- inhibition at 300 g/ha (rice (ORYSA); 300 g/ha): 0%
- inhibition at 900 g/ha (rice (ORYSA)): 0%
- inhibition at 10 g/ha (soybean (GLYMX)): 0%
- inhibition at 30 g/ha (soybean (GLYMX)): 0%
- inhibition at 100 g/ha (soybean (GLYMX)): 0%
- inhibition at 300 g/ha (soybean (GLYMX); 300 g/ha): 0%
- inhibition at 900 g/ha (soybean (GLYMX)): 10%
- Post-emergence activity (GR80) KCHSC (KCHSC (kochia)): 100 g/ha
